Measurements reported in ChEMBL document CHEMBL1145609, “Design and synthesis of tacrine-ferulic acid hybrids as multi-potent anti-Alzheimer drug candidates” (Bioorg Med Chem Lett, 2008).

Experiments:
Acetylcholinesterase = Acetylcholinesterase (Electrophorus electricus, UniProt O42275)
Description: Inhibition of electric eel AchE by Ellman's assay

Butyrylcholinesterase = Butyrylcholinesterase (Equus caballus, UniProt Q9N1N9)
Butyrylcholinesterase, sequence (Q9N1N9 whole entry): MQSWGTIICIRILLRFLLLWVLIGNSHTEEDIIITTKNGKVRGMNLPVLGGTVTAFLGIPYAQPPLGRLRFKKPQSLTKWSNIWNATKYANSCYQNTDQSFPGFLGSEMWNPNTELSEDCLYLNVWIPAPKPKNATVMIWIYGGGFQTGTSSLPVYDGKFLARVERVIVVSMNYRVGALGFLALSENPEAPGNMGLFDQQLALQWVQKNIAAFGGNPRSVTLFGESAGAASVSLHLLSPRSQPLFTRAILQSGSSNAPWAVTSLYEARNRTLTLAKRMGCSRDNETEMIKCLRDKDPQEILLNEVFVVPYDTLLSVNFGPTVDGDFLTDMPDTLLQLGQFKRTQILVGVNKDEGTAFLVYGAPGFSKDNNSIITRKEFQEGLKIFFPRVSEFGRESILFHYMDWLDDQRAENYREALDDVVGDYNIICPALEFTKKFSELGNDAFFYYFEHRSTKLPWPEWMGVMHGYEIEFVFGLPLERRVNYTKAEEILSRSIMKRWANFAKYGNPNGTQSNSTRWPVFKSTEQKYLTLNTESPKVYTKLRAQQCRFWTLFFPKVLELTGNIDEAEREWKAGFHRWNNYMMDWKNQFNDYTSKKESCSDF
Description: Inhibition of equine BChE by Ellman's assay

Acetylcholinesterase, sequence (O42275 whole entry): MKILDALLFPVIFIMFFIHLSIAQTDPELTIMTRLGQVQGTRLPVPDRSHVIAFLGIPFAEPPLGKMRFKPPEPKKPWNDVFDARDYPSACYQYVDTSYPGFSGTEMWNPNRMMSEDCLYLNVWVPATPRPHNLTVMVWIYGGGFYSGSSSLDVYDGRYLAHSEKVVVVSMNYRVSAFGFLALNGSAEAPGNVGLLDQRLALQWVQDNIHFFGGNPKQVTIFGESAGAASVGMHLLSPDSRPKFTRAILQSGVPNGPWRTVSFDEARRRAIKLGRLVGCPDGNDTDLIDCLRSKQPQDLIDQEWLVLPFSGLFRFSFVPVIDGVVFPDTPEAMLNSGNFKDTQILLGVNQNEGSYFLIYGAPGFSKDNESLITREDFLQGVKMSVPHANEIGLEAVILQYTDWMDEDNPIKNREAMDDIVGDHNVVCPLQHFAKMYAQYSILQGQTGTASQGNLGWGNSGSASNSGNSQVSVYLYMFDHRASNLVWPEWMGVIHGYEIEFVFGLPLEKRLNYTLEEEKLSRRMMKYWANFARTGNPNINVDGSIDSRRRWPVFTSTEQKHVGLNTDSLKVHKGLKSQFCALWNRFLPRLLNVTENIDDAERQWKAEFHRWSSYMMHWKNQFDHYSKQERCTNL

SMILES: COc1cc(/C=C/C(=O)NCCCNc2c3c(nc4ccccc24)CCCC3)ccc1O
- IC50 (Acetylcholinesterase): 33 nM
- IC50 (Butyrylcholinesterase): 27 nM

SMILES: COc1cc(/C=C/C(=O)NCCCCNc2c3c(nc4ccccc24)CCCC3)ccc1O
- IC50 (Acetylcholinesterase): 7.6 nM
- IC50 (Butyrylcholinesterase): 5.9 nM

SMILES: NCCCCCNc1c2c(nc3ccccc13)CCCC2
- IC50 (Acetylcholinesterase): 3.2 nM
- IC50 (Butyrylcholinesterase): 5 nM

SMILES: COc1cc(/C=C/C(=O)NCCNc2c3c(nc4ccccc24)CCCC3)ccc1O
- IC50 (Acetylcholinesterase): 38.6 nM
- IC50 (Butyrylcholinesterase): 34.1 nM

SMILES: NCCNc1c2c(nc3ccccc13)CCCC2
- IC50 (Acetylcholinesterase): 54.8 nM
- IC50 (Butyrylcholinesterase): 12.3 nM

SMILES: NCCCCNc1c2c(nc3ccccc13)CCCC2
- IC50 (Acetylcholinesterase): 23.6 nM
- IC50 (Butyrylcholinesterase): 7.1 nM

SMILES: COc1cc(/C=C/C(=O)NCCCCCCCCNc2c3c(nc4ccccc24)CCCC3)ccc1O
- IC50 (Acetylcholinesterase): 9.6 nM
- IC50 (Butyrylcholinesterase): 12.7 nM

SMILES: NCCCCCCCCNc1c2c(nc3ccccc13)CCCC2
- IC50 (Acetylcholinesterase): 3.5 nM
- IC50 (Butyrylcholinesterase): 1.4 nM

SMILES: NCCCNc1c2c(nc3ccccc13)CCCC2
- IC50 (Acetylcholinesterase): 69.5 nM
- IC50 (Butyrylcholinesterase): 5.5 nM

SMILES: COc1cc(/C=C/C(=O)NCCCCCNc2c3c(nc4ccccc24)CCCC3)ccc1O
- IC50 (Acetylcholinesterase): 4.4 nM
- IC50 (Butyrylcholinesterase): 6.7 nM
